# Assay results taken from PubChem BioAssay (NCI).
# Values joined by “and” are separate entries in the source; they are usually repeats but may differ in a detail not shown here. Equal entries are not always repeated.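 Where inhibition never reached the appropriate level, the endpoint shown equals the highest concentration tested. Otherwise, values were interpolated linearly from a five-concentration, 48-hour dose response in 96-well plates. GI50 is the concentration that inhibits growth by half. The concentration for full growth arrest is given as TGI.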
# Columns and labels:
# Experiment in all cases: DTP human tumour cell line panel, 48 h
# [1] = tested on: SF-539 CNS
# [2] = tested on: IGROV1 ovarian
# [3] = tested on: NCI-H23 lung
# [4] = tested on: UACC-62 melanoma
# [5] = tested on: M14 melanoma
# [6] = tested on: HL-60(TB) leukemia
# [7] = tested on: NCI-H522 lung
# [8] = tested on: HCT-116 colon
# [9] = tested on: SK-MEL-28 melanoma
# [10] = tested on: RXF 393 renal
SMILES,GI50 [1],TGI [1],GI50 [2],TGI [2],GI50 [3],TGI [3],GI50 [4],TGI [4],GI50 [5],TGI [5],GI50 [6],TGI [6],GI50 [7],TGI [7],GI50 [8],TGI [8],GI50 [9],TGI [9],TGI [10],GI50 [10]
O=C(/C=C(\[O-])c1ccccc1)CCCCCCC(=O)/C=C(\[O-])c1ccccc1.O=C(/C=C(\[O-])c1ccccc1)CCCCCCC(=O)/C=C(\[O-])c1ccccc1.O=C(/C=C(\[O-])c1ccccc1)CCCCCCC(=O)/C=C(\[O-])c1ccccc1.[Nd+3].[Nd+3],> 50 µM,> 50 µM,> 50 µM,> 50 µM,> 50 µM,> 50 µM,> 50 µM,> 50 µM,> 50 µM,> 50 µM,3.05 µM,> 50 µM,> 50 µM,> 50 µM,> 50 µM,> 50 µM,> 50 µM,> 50 µM,–,–
COCC1N=C(c2cc(OC)c(OC)c(OC)c2-c2cc3c(cc2[C@H](C)O)OCO3)O[C@H]1c1ccccc1 (some centres not stated),–,> 100 µM,–,> 100 µM,–,> 100 µM,–,> 100 µM,–,> 100 µM,–,> 10 µM,–,–,–,> 100 µM,–,> 100 µM,–,–
O=c1cccccc1[O-].O=c1cccccc1[O-].O=c1cccccc1[O-].[Sm+3],29.1 µM,> 100 µM,–,> 100 µM,–,71.5 µM,–,> 100 µM,–,> 100 µM,–,> 100 µM,–,> 100 µM,–,94.5 µM,–,–,53.6 µM,–
Cc1ccnc(Nc2ccc([N+](=O)[O-])c(NCCN3CCOCC3)n2)c1,–,–,0.0389 µM and 0.0579 µM,42.4 µM,0.0352 µM and 0.0156 µM,40.8 µM,0.00382 µM,18.3 µM,–,45.2 µM,0.0144 µM,0.0464 µM,0.00209 µM,0.00686 µM,0.00663 µM,–,–,30.3 µM,–,–
CN(C)c1ccc(O[Si](Oc2ccc(N(C)C)cc2)(Oc2ccc(N(C)C)cc2)Oc2ccc(N(C)C)cc2)cc1,–,> 100 µM,–,> 100 µM,–,> 100 µM,–,> 100 µM,–,> 100 µM,–,> 100 µM,–,> 100 µM,–,> 100 µM,–,> 100 µM,–,–
Nc1ncc(C2[C@H](CNC(=O)c3cc(Br)c[nH]3)C(CNC(=O)c3cc(Br)c[nH]3)[C@@H]2c2cnc(N)[nH]2)[nH]1 (some centres not stated),8.79 µM,> 50 µM,> 50 µM,> 50 µM,> 50 µM,> 50 µM,> 50 µM,> 50 µM,> 50 µM,> 50 µM,–,–,> 50 µM,> 50 µM,> 50 µM,> 50 µM,–,–,–,–
CC(=O)[O-].[Mn+3].[O-]c1ccc(Cl)cc1C=NCCN=Cc1cc(Cl)ccc1[O-],36 µM,74.3 µM,7.99 µM,54.6 µM,> 100 µM,> 100 µM,> 100 µM,> 100 µM,71.6 µM,> 100 µM,50.7 µM,> 100 µM,> 100 µM,> 100 µM,> 100 µM,> 100 µM,> 100 µM,> 100 µM,–,–
COC(=O)C1CCC(=O)N1/C(C)=N/NC(=O)Nc1ccc(Cl)c(Cl)c1 (configuration not stated),–,> 100 µM,–,> 100 µM,–,> 100 µM,–,> 100 µM,–,> 100 µM,–,> 100 µM,–,–,–,> 100 µM,–,> 100 µM,> 100 µM,–
NNC(=O)N/N=C1\CN(c2ccc(Cl)cc2Cl)C(=O)C(=O)C1c1nc2ccccc2o1 (configuration not stated),–,> 100 µM,–,> 100 µM,–,> 100 µM,–,> 100 µM,–,> 100 µM,–,–,–,> 100 µM,–,> 100 µM,–,> 100 µM,–,–
C#CC#CC#CC#CC#CC#CC#CC#CC[C@@H]1OC[C@@H](COC(=O)O[C@@H](C(=O)O[C@H]2C[C@@]3(O)[C@@H](OC(=O)c4ccccc4)[C@@H]4[C@]5(OC(C)=O)CO[C@@H]5C[C@H](O)[C@@]4(C)C(=O)[C@H](OC(C)=O)C(=C2C)C3(C)C)[C@@H](NC(=O)c2ccccc2)c2ccccc2)O1,0.248 µM,1.99 µM,0.404 µM,> 33.3 µM,1.04 µM,> 33.3 µM,0.815 µM,> 33.3 µM,0.165 µM,1.38 µM,0.163 µM,> 33.3 µM,0.367 µM,> 17.6 µM,0.0919 µM,> 33.3 µM,–,–,2.39 µM,0.471 µM
O=C(O)Cn1ccc(=O)c2cc([N+](=O)[O-])ccc21,–,> 100 µM,–,> 100 µM,–,> 100 µM,–,> 100 µM,–,> 100 µM,–,> 100 µM,–,> 100 µM,–,> 100 µM,–,> 100 µM,–,–
O=C(C(=O)c1cc(Br)ccc1O)c1cc(Br)ccc1O,4.01 µM,18.6 µM,2.57 µM,8.58 µM,3.38 µM,19.1 µM,3.94 µM,17 µM,4.96 µM,20.1 µM,2.2 µM,6.16 µM,2.94 µM,9.3 µM,3.38 µM,12.7 µM,8 µM,> 100 µM,–,–
OCCCCC#Cc1ccccc1C#Cc1ccc(C(F)(F)F)cc1,19.7 µM,37.2 µM,17.6 µM,32 µM,16.8 µM,32.4 µM,16 µM,29.8 µM,17.1 µM,38.3 µM,17.7 µM,38.8 µM,16.4 µM,32 µM,16.9 µM,35.8 µM,8.4 µM,21.7 µM,–,–
COC(=O)c1sc(=NC(=S)N2CCCCC2)sc1C(=O)OC,–,> 100 µM,–,> 100 µM,–,–,–,> 100 µM,–,> 100 µM,–,> 100 µM,–,–,–,> 100 µM,–,> 100 µM,> 100 µM,–
OCC(O)C(O)C(O)C(O)c1nn[nH]n1 (configuration not stated),–,> 100 µM,–,> 100 µM,–,> 100 µM,–,> 100 µM,–,> 100 µM,–,> 100 µM,–,> 100 µM,–,> 100 µM,–,–,–,–
Oc1ccccc1C=Nc1nc(OCc2ccccc2)nc2[nH]ncc12,22.1 µM,43 µM,34.8 µM,> 100 µM,15.4 µM,79.7 µM,13.6 µM,28.9 µM,21.6 µM,57.7 µM,–,–,26.3 µM,> 100 µM,18.4 µM,41.9 µM,22.2 µM,43.1 µM,33.4 µM,4.56 µM
Cc1nc(-n2nc(-c3ccccc3)cc2-c2ccccc2)sc1C(=O)/C=C/c1ccccc1,–,> 100 µM,–,> 100 µM,–,> 100 µM,–,> 100 µM,–,–,–,> 100 µM,–,> 100 µM,–,–,–,> 100 µM,> 100 µM,–
